In ChEMBL document CHEMBL1201862, “PubChem BioAssay data set” (2004):
Each block holds one molecule with its values, some of them ahead of it. Activity calls are given as the source filed them.

What was measured:
[1] = target: Sphingosine 1-phosphate receptor 1 (Homo sapiens, UniProt P21453); assay: Fluorescence-based counterscreen assay for S1P4 agonists: Cell-based dose response high throughput screening assay to identify agonists of the Sphingosine 1-Phosphate Receptor 1 (S1P1). [Related pubchem assays (depositor defined):AID1509, AID1523, AID1801, AID463107, AID463118, AID463119, AID463122, AID463123, AID463129, AID463225, AID504400, AID504460]; assay type: functional
Sphingosine 1-phosphate receptor 1, sequence (P21453 whole entry): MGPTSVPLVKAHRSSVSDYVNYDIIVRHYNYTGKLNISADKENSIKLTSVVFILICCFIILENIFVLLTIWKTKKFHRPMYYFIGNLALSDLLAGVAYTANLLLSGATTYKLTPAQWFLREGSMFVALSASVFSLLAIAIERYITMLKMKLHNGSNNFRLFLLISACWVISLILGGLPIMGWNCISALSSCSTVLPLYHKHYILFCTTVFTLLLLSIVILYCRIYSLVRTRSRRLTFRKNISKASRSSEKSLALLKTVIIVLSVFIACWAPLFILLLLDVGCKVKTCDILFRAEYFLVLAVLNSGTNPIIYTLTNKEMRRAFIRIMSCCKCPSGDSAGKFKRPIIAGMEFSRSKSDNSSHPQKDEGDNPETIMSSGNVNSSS

[2] = target: T1, Sphingosine 1-phosphate receptor 4 (Homo sapiens, UniProt O95977); assay: Fluorescence dose response cell-based high throughput screening assay for agonists of the Sphingosine 1-Phosphate Receptor 4 (S1P4). [Related pubchem assays: 1509 (Primary screen.), 1523 (Confirmation screen in triplicates.)]; assay type: functional
T1 sequence (O95977 whole entry): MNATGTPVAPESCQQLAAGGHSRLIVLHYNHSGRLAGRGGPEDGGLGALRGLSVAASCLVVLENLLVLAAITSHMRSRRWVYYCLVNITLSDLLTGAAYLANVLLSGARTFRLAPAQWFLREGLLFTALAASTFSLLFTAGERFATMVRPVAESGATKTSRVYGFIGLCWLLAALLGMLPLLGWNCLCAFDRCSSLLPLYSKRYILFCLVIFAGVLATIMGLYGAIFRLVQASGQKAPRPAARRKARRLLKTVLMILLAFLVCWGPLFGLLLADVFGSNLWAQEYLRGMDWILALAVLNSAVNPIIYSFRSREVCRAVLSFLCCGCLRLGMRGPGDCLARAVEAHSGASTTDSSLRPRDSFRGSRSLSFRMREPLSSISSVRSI

Cytochrome P450 2C19 = Cytochrome P450 2C19 (Homo sapiens, UniProt P33261); assay: Cytochrome panel assay with activity outcomes. Panel member name: p450-cyp2c19 Compounds with AC50 equal or less than 10 uM are considered active; assay type: functional; conditions: read-out: AC50
Cytochrome P450 2C19, sequence (P33261 whole entry): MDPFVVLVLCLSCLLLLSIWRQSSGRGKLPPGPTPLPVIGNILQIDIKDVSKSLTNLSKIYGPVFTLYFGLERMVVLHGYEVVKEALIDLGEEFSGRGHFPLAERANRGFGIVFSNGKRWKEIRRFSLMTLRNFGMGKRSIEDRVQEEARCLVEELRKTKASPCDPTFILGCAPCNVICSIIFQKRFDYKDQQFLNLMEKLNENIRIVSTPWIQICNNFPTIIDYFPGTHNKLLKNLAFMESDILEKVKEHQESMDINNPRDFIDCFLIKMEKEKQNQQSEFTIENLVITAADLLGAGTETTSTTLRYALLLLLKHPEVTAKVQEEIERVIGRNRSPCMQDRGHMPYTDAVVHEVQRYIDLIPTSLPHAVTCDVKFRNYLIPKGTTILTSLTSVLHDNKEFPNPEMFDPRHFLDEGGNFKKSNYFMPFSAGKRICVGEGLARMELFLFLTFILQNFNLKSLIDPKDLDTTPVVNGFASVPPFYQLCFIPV

Cytochrome P450 1A2 = target: T2, Cytochrome P450 1A2 (Homo sapiens, UniProt P05177);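 further: PubChem cytochrome P450 panel assay, CYP1A2 panel member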
T2 sequence (P05177 whole entry): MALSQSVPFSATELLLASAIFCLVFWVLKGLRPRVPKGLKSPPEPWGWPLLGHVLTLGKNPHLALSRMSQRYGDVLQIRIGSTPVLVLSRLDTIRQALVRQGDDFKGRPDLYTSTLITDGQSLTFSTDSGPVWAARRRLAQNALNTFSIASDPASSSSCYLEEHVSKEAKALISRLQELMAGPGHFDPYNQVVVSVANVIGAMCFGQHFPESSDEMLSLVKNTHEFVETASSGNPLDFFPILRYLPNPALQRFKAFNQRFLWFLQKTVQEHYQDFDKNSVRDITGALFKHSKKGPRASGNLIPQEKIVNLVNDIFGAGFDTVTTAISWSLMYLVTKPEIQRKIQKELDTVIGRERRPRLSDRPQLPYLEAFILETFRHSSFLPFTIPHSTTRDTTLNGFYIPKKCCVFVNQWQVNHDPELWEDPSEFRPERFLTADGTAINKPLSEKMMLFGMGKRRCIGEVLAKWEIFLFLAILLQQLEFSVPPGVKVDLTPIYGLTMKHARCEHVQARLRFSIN

SUMO E1/E2 = SUMO E1/E2 (Homo sapiens, UniProt P63279+Q9UBE0+Q9UBT2); assay: SAR analysis of SUMOylation using HTRF in an in-Vitro dose response assay. [Related pubchem assays (depositor defined):AID2006, AID2011, AID2018, AID2069, AID2658]; assay type: functional
[3] = target: Kappa-type opioid receptor (Homo sapiens, UniProt P41145); assay: SAR analysis of small molecule agonists of the kappa opioid receptor via a luminescent beta-arrestin assay - Set 3. [Related pubchem assays (depositor defined):AID1777, AID1785, AID1786, AID1966, AID2133, AID2136, AID2284, AID2500]; assay type: functional
SUMO-activating enzyme [4] = target: T3, SUMO-activating enzyme (Homo sapiens, UniProt Q9UBT2); assay: SUMOylation inhibitor hit validation, confirmation, SUMOylation inhibitor project, biochemical, AlphaScreen (AID 2018); assay type: functional
T3 sequence (Q9UBE0 whole entry): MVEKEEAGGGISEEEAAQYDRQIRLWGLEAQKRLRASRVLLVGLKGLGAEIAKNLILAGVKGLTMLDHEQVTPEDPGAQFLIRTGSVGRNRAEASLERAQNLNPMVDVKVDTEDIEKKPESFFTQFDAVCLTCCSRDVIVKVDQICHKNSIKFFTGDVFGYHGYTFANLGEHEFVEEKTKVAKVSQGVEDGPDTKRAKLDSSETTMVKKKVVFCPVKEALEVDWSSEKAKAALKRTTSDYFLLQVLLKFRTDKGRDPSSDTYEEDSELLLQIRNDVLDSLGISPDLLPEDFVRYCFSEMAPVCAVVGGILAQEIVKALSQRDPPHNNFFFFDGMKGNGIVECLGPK
T3 sequence (Q9UBT2 whole entry): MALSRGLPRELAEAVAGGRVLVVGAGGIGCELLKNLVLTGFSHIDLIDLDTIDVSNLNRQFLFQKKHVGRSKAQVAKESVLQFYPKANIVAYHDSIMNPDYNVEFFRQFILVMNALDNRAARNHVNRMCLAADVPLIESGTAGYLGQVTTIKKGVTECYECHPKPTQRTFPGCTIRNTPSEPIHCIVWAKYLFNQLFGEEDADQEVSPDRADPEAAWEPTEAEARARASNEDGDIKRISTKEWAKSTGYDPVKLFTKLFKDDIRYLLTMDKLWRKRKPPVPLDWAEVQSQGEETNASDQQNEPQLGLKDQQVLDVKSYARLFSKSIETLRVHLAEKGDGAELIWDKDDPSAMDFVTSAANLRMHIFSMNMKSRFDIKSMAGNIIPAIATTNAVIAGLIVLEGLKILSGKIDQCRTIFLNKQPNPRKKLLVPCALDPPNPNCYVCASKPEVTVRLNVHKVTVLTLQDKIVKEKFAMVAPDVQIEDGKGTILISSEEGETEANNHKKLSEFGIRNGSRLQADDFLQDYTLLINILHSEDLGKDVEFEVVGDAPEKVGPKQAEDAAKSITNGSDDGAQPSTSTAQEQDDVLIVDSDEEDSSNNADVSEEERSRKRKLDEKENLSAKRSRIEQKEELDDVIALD

[5] = target: T4, Voltage-gated N-type calcium channel alpha-1B subunit/Amyloid beta A4 precursor protein-binding family A member 1 (Homo sapiens, UniProt Q00975+Q02410); assay type: protein assay
T4 sequence (Q00975 whole entry): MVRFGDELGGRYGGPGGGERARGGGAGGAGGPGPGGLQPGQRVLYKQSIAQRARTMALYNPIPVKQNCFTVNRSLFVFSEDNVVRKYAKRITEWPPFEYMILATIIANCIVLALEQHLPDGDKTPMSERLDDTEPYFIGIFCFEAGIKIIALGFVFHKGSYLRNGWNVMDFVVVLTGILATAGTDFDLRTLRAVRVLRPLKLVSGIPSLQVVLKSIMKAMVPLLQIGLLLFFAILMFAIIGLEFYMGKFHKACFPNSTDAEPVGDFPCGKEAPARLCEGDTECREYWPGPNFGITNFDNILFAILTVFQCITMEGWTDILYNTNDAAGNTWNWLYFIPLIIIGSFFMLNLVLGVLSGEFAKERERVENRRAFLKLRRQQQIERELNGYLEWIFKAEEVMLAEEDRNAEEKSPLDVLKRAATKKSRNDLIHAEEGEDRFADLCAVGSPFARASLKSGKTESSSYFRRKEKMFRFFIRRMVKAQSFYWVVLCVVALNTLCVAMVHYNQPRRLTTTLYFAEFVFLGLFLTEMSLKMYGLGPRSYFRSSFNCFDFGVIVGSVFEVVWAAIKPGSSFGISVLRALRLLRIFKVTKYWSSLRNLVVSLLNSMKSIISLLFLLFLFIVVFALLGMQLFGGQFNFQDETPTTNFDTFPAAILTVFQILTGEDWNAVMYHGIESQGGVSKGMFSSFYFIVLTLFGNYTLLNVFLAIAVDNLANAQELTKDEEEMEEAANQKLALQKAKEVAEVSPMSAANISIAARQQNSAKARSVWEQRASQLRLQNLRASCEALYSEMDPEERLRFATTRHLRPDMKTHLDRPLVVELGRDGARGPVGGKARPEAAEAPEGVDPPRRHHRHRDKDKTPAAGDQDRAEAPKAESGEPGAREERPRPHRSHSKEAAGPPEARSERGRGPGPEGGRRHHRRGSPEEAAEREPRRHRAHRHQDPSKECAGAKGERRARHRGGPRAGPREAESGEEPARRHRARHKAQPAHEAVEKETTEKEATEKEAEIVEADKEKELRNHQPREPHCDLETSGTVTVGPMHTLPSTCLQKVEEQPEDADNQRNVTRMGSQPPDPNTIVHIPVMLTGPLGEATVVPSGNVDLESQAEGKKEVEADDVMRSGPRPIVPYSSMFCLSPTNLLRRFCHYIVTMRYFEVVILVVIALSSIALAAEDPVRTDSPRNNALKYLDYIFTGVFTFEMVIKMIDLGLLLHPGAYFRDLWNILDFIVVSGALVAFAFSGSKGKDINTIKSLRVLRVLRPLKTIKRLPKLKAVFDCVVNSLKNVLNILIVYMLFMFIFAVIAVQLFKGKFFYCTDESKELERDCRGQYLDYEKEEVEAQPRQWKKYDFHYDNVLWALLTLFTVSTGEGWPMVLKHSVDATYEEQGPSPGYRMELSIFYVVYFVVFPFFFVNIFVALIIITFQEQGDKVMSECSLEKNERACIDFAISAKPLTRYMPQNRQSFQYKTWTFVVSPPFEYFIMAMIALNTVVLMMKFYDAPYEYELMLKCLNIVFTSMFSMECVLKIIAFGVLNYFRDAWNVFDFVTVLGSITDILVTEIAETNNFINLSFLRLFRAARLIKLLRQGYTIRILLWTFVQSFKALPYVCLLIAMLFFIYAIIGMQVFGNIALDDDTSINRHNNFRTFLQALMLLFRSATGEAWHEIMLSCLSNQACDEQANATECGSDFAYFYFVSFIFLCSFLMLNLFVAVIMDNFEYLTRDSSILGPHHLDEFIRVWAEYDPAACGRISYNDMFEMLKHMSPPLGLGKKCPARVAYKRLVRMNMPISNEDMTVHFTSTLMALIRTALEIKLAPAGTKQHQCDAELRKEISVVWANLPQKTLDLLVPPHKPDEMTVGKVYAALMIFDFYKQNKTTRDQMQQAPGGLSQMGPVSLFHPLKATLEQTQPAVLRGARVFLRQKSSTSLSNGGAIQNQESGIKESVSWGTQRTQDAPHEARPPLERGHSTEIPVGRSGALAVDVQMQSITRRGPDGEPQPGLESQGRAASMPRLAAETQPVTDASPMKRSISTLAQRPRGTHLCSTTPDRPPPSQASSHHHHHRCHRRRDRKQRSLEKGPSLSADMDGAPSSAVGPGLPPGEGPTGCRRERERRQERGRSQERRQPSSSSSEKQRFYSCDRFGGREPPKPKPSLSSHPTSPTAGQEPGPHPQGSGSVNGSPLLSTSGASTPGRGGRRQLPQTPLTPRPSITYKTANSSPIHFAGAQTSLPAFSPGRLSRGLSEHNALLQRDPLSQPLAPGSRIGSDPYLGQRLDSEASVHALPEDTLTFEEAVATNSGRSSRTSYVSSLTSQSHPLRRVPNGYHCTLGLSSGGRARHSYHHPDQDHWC
T4 sequence (Q02410 whole entry): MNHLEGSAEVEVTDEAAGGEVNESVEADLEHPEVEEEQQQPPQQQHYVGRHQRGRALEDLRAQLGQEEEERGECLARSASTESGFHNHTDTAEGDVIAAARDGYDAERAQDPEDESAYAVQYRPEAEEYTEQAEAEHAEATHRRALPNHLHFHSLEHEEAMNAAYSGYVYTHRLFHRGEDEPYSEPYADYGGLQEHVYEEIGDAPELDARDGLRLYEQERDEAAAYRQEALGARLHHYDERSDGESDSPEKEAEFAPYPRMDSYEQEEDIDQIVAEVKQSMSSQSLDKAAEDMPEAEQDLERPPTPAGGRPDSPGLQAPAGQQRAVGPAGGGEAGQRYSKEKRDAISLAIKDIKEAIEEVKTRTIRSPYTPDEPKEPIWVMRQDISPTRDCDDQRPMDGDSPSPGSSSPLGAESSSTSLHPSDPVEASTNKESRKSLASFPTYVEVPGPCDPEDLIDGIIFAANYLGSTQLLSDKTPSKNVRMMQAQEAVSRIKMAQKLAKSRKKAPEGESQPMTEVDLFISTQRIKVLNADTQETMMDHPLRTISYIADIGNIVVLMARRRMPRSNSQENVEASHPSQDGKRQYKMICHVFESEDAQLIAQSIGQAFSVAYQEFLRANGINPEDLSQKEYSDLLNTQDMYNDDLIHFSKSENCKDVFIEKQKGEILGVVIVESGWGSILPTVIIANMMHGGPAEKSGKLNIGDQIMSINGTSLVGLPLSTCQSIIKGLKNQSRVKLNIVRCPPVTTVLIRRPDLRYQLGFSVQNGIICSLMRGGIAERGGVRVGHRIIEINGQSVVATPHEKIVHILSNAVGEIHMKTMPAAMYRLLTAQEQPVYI

SUMO-activating enzyme [6] = target: T3, SUMO-activating enzyme; assay: inhibitors of in vitro SUMOylation cascade, primary screen, biochemical, HTRF, uHTS (AID 2006); assay type: protein-complex assay
[7] = target: T4, Voltage-gated N-type calcium channel alpha-1B subunit/Amyloid beta A4 precursor protein-binding family A member 1; assay type: protein assay; remark: listed apart in the source

EC50 [1]: > 49.8 µM (inactive)
EC50 [2]: > 49.8 µM (not active)
AC50 (Cytochrome P450 2C19): 0.794 µM (inconclusive)
AC50 (Cytochrome P450 1A2): 5.01 µM (inconclusive)
SMILES: COC(=O)c1c(-n2c(C)cc(C=O)c2C)sc2c1CCCC2

IC50 (SUMO E1/E2): > 100 µM (inactive)
SMILES: S=c1[nH]nc(-c2cc(-c3ccccc3)[nH]n2)n1N=Cc1ccc(Cl)c(Cl)c1

EC50 [3]: > 20 µM (inactive)
SMILES: CCCCN(Cc1cc2cc(Cl)ccc2[nH]c1=O)C(=O)c1cccs1

IC50 (SUMO-activating enzyme [4]): 35.1 µM (active)
IC50 [5]: > 56.8 µM (not active)
IC50 (SUMO-activating enzyme [6]): > 100 µM (inactive)
IC50 [7]: > 50 µM (inactive)
SMILES: O=C(N/N=C/c1ccc([N+](=O)[O-])o1)c1cn2ccc3ccccc3c2n1
